Tests used:
Test in all cases: Test C greenhouse herbicide test, pre- and postemergence
Type in all cases: in vivo
[1] = system: blackgrass (Alopecurus myosuroides)
In short: (§1)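 Preemergence: seeds sown in a loam soil–sand blend and sprayed with test chemicals in a non-phytotoxic solvent mixture containing surfactant. Postemergence: plants grown in peat-based medium and treated at 2 to 18 cm (1- to 4-leaf stage). After 13 to 15 d in a greenhouse, injury was visually rated 0–100 against controls.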

soybean (Glycine max) = system: soybean (Glycine max)
In short: as §1

[2] = system: ragweed (common ragweed, Ambrosia elatior)
In short: as §1

[3] = system: nutsedge, yellow (yellow nutsedge, Cyperus esculentus)
In short: as §1

[4] = system: foxtail, giant (giant foxtail, Setaria faberii)
In short: as §1

[5] = system: ryegrass, Italian (Italian ryegrass, Lolium multiflorum)
In short: as §1

[6] = system: wheat (winter wheat, Triticum aestivum)
In short: as §1

[7] = system: pigweed (Amaranthus retroflexus)
In short: as §1

[8] = system: lambsquarters (Chenopodium album)
In short: as §1

[9] = system: barnyardgrass (Echinochloa crus-galli)
In short: as §1

[10] = system: velvetleaf (Abutilon theophrasti)
In short: as §1

[11] = system: crabgrass, large (large crabgrass, Digitaria sanguinalis)
In short: as §1

[12] = system: oilseed rape (Brassica napus)
In short: as §1

corn (Zea mays) = system: corn (Zea mays)
In short: as §1

[13] = system: galium (catchweed bedstraw, Galium aparine)
In short: as §1

[14] = Postemergence, 31 g ai/ha, scale 0 to 100 (0 no effect, 100 complete control)
[15] = Postemergence, 125 g ai/ha, scale 0 to 100, 0 is no effect, 100 is complete control
[16] = Postemergence, 250 g ai/ha, scale 0 to 100, 0 no effect, 100 complete control, 13 to 15 d
[17] = Preemergence, 31 g ai/ha, scale 0 to 100, 0 is no effect, 100 is complete control
[18] = Preemergence, 62 g ai/ha, scale 0 to 100, 0 is no effect, 100 is complete control
[19] = Preemergence, 125 g ai/ha, scale 0 to 100, 0 is no effect, 100 is complete control
[20] = Preemergence, 250 g ai/ha, scale 0 to 100, 0 no effect, 100 complete control
[21] = postemergence, 62 g ai/ha, scale 0 to 100, 0 no effect, 100 complete control

CC(=O)Oc1c(C)nn(C)c(=O)c1-c1c(C)sc2ccc(Cl)cc12 [Compound 108]
Plant response rating, Blackgrass [1, 14]: 15
Plant response rating, Blackgrass [1, 15]: 35
Plant response rating, Blackgrass [1, 16]: 55
Plant response rating, Blackgrass [1, 17]: 10
Plant response rating, Blackgrass [1, 18]: 0
Plant response rating, Blackgrass [1, 19]: 60
Blackgrass plant response rating [1, 20]: 85
Blackgrass plant response rating [1, 21]: 35
Plant response rating, Soybean (soybean (Glycine max); [14]): 10
Plant response rating, Soybean (soybean (Glycine max); [15]): 15
Plant response rating, Soybean (soybean (Glycine max); [16]): 15
Plant response rating, Soybean (soybean (Glycine max); [17]): 0
Plant response rating, Soybean (soybean (Glycine max); [18]): 0
Plant response rating, Soybean (soybean (Glycine max); [19]): 0
Soybean plant response rating (soybean (Glycine max); [20]): 0
Plant response rating, Ragweed [2, 14]: 90
Plant response rating, Ragweed [2, 15]: 98
Plant response rating, Ragweed [2, 16]: 100
Plant response rating, Ragweed [2, 17]: 75
Plant response rating, Ragweed [2, 18]: 90
Plant response rating, Ragweed [2, 19]: 98
Ragweed plant response rating [2, 20]: 98
Plant response rating, Nutsedge, Yellow [3, 14]: 30
Plant response rating, Nutsedge, Yellow [3, 15]: 70
Plant response rating, Nutsedge, Yellow [3, 16]: 75
Plant response rating, Nutsedge, Yellow [3, 17]: 35
Plant response rating, Nutsedge, Yellow [3, 18]: 80
Plant response rating, Nutsedge, Yellow [3, 19]: 70
Nutsedge, Yellow plant response rating [3, 20]: 80
Plant response rating, Foxtail, Giant [4, 14]: 30
Plant response rating, Foxtail, Giant [4, 15]: 75
Plant response rating, Foxtail, Giant [4, 16]: 85
Plant response rating, Foxtail, Giant [4, 17]: 65
Plant response rating, Foxtail, Giant [4, 18]: 85
Plant response rating, Foxtail, Giant [4, 19]: 85
Foxtail, Giant plant response rating [4, 20]: 95
Plant response rating, Ryegrass, Italian [5, 14]: 90
Plant response rating, Ryegrass, Italian [5, 15]: 90
Plant response rating, Ryegrass, Italian [5, 16]: 90
Plant response rating, Ryegrass, Italian [5, 17]: 60
Plant response rating, Ryegrass, Italian [5, 18]: 85
Plant response rating, Ryegrass, Italian [5, 19]: 90
Ryegrass, Italian plant response rating [5, 20]: 95
Plant response rating, Wheat [6, 14]: 0
Plant response rating, Wheat [6, 15]: 5
Plant response rating, Wheat [6, 16]: 10
Plant response rating, Wheat [6, 17]: 0
Plant response rating, Wheat [6, 18]: 10
Plant response rating, Wheat [6, 19]: 15
Wheat plant response rating [6, 20]: 10
Plant response rating, Pigweed [7, 14]: 90
Plant response rating, Pigweed [7, 15]: 98
Plant response rating, Pigweed [7, 16]: 98
Plant response rating, Pigweed [7, 17]: 100
Plant response rating, Pigweed [7, 18]: 100
Plant response rating, Pigweed [7, 19]: 100
Pigweed plant response rating [7, 20]: 100
Plant response rating, Lambsquarters [8, 14]: 90
Plant response rating, Lambsquarters [8, 15]: 98
Plant response rating, Lambsquarters [8, 16]: 98
Plant response rating, Lambsquarters [8, 17]: 85
Plant response rating, Lambsquarters [8, 18]: 90
Plant response rating, Lambsquarters [8, 19]: 90
Lambsquarters plant response rating [8, 20]: 100
Plant response rating, Barnyardgrass [9, 14]: 20
Plant response rating, Barnyardgrass [9, 15]: 40
Plant response rating, Barnyardgrass [9, 16]: 60
Plant response rating, Barnyardgrass [9, 17]: 5
Plant response rating, Barnyardgrass [9, 18]: 35
Plant response rating, Barnyardgrass [9, 19]: 35
Barnyardgrass plant response rating [9, 20]: 85
Barnyardgrass plant response rating [9, 21]: 35
Plant response rating, Velvetleaf [10, 14]: 70
Plant response rating, Velvetleaf [10, 15]: 100
Plant response rating, Velvetleaf [10, 16]: 100
Plant response rating, Velvetleaf [10, 17]: 50
Plant response rating, Velvetleaf [10, 18]: 75
Plant response rating, Velvetleaf [10, 19]: 85
Velvetleaf plant response rating [10, 20]: 90
Plant response rating, Crabgrass, Large [11, 14]: 5
Plant response rating, Crabgrass, Large [11, 15]: 25
Plant response rating, Crabgrass, Large [11, 16]: 40
Plant response rating, Crabgrass, Large [11, 17]: 5
Plant response rating, Crabgrass, Large [11, 18]: 70
Plant response rating, Crabgrass, Large [11, 19]: 65
Crabgrass, Large plant response rating [11, 20]: 70
Crabgrass, Large plant response rating [11, 21]: 10
Plant response rating, Oilseed Rape [12, 14]: 80
Plant response rating, Oilseed Rape [12, 15]: 85
Plant response rating, Oilseed Rape [12, 16]: 95
Plant response rating, Oilseed Rape [12, 17]: 5
Plant response rating, Oilseed Rape [12, 18]: 90
Plant response rating, Oilseed Rape [12, 19]: 90
Oilseed Rape plant response rating [12, 20]: 90
Plant response rating, Corn (corn (Zea mays); [14]): 5
Plant response rating, Corn (corn (Zea mays); [15]): 25
Plant response rating, Corn (corn (Zea mays); [16]): 30
Plant response rating, Corn (corn (Zea mays); [17]): 5
Plant response rating, Corn (corn (Zea mays); [18]): 10
Plant response rating, Corn (corn (Zea mays); [19]): 5
Corn plant response rating (corn (Zea mays); [20]): 15
Corn plant response rating (corn (Zea mays); [21]): 40
Plant response rating, Galium [13, 14]: 90
Plant response rating, Galium [13, 15]: 95
Plant response rating, Galium [13, 16]: 95
Plant response rating, Galium [13, 17]: 90
Plant response rating, Galium [13, 18]: 90
Plant response rating, Galium [13, 19]: 95
Galium plant response rating [13, 20]: 95

CCC(=O)Oc1c(C)nn(C)c(=O)c1-c1ccc(F)c2ccccc12 [Compound 113]
Plant response rating, Blackgrass [1, 14]: 15
Plant response rating, Blackgrass [1, 15]: 45
Plant response rating, Blackgrass [1, 16]: 60
Plant response rating, Blackgrass [1, 17]: 10
Plant response rating, Blackgrass [1, 18]: 50
Plant response rating, Blackgrass [1, 19]: 55
Blackgrass plant response rating [1, 20]: 60
Blackgrass plant response rating [1, 21]: 25
Plant response rating, Soybean (soybean (Glycine max); [14]): 15
Plant response rating, Soybean (soybean (Glycine max); [15]): 40
Plant response rating, Soybean (soybean (Glycine max); [16]): 55
Plant response rating, Soybean (soybean (Glycine max); [17]): 0
Plant response rating, Soybean (soybean (Glycine max); [18]): 45
Plant response rating, Soybean (soybean (Glycine max); [19]): 65
Soybean plant response rating (soybean (Glycine max); [20]): 80
Plant response rating, Ragweed [2, 14]: 90
Plant response rating, Ragweed [2, 15]: 98
Plant response rating, Ragweed [2, 16]: 100
Plant response rating, Ragweed [2, 17]: 65
Plant response rating, Ragweed [2, 18]: 95
Plant response rating, Ragweed [2, 19]: 85
Ragweed plant response rating [2, 20]: 95
Plant response rating, Nutsedge, Yellow [3, 14]: 70
Plant response rating, Nutsedge, Yellow [3, 15]: 85
Plant response rating, Nutsedge, Yellow [3, 16]: 95
Plant response rating, Nutsedge, Yellow [3, 17]: 55
Plant response rating, Nutsedge, Yellow [3, 18]: 70
Plant response rating, Nutsedge, Yellow [3, 19]: 85
Nutsedge, Yellow plant response rating [3, 20]: 85
Plant response rating, Foxtail, Giant [4, 14]: 20
Plant response rating, Foxtail, Giant [4, 15]: 30
Plant response rating, Foxtail, Giant [4, 16]: 70
Plant response rating, Ryegrass, Italian [5, 14]: 90
Plant response rating, Ryegrass, Italian [5, 15]: 95
Plant response rating, Ryegrass, Italian [5, 16]: 95
Plant response rating, Ryegrass, Italian [5, 17]: 95
Plant response rating, Ryegrass, Italian [5, 18]: 95
Plant response rating, Ryegrass, Italian [5, 19]: 90
Ryegrass, Italian plant response rating [5, 20]: 95
Plant response rating, Wheat [6, 14]: 5
Plant response rating, Wheat [6, 15]: 5
Plant response rating, Wheat [6, 16]: 15
Plant response rating, Wheat [6, 17]: 0
Plant response rating, Wheat [6, 18]: 30
Plant response rating, Wheat [6, 19]: 35
Wheat plant response rating [6, 20]: 50
Plant response rating, Pigweed [7, 14]: 65
Plant response rating, Pigweed [7, 15]: 95
Plant response rating, Pigweed [7, 16]: 98
Plant response rating, Pigweed [7, 17]: 70
Plant response rating, Pigweed [7, 18]: 75
Plant response rating, Pigweed [7, 19]: 100
Pigweed plant response rating [7, 20]: 100
Plant response rating, Lambsquarters [8, 14]: 98
Plant response rating, Lambsquarters [8, 15]: 100
Plant response rating, Lambsquarters [8, 16]: 100
Plant response rating, Lambsquarters [8, 17]: 90
Plant response rating, Lambsquarters [8, 18]: 85
Plant response rating, Lambsquarters [8, 19]: 90
Lambsquarters plant response rating [8, 20]: 100
Plant response rating, Barnyardgrass [9, 14]: 25
Plant response rating, Barnyardgrass [9, 15]: 35
Plant response rating, Barnyardgrass [9, 16]: 45
Plant response rating, Barnyardgrass [9, 17]: 10
Plant response rating, Barnyardgrass [9, 18]: 35
Plant response rating, Barnyardgrass [9, 19]: 65
Barnyardgrass plant response rating [9, 20]: 95
Barnyardgrass plant response rating [9, 21]: 35
Plant response rating, Velvetleaf [10, 14]: 70
Plant response rating, Velvetleaf [10, 15]: 90
Plant response rating, Velvetleaf [10, 16]: 98
Plant response rating, Velvetleaf [10, 17]: 60
Plant response rating, Velvetleaf [10, 18]: 95
Plant response rating, Velvetleaf [10, 19]: 98
Velvetleaf plant response rating [10, 20]: 100
Plant response rating, Crabgrass, Large [11, 14]: 5
Plant response rating, Crabgrass, Large [11, 15]: 25
Plant response rating, Crabgrass, Large [11, 16]: 70
Plant response rating, Crabgrass, Large [11, 17]: 0
Plant response rating, Crabgrass, Large [11, 18]: 35
Plant response rating, Crabgrass, Large [11, 19]: 75
Crabgrass, Large plant response rating [11, 20]: 90
Crabgrass, Large plant response rating [11, 21]: 15
Plant response rating, Oilseed Rape [12, 14]: 0
Plant response rating, Oilseed Rape [12, 15]: 0
Plant response rating, Oilseed Rape [12, 16]: 0
Plant response rating, Oilseed Rape [12, 17]: 0
Plant response rating, Oilseed Rape [12, 18]: 0
Plant response rating, Oilseed Rape [12, 19]: 60
Oilseed Rape plant response rating [12, 20]: 90
Plant response rating, Corn (corn (Zea mays); [14]): 5
Plant response rating, Corn (corn (Zea mays); [15]): 10
Plant response rating, Corn (corn (Zea mays); [16]): 15
Plant response rating, Corn (corn (Zea mays); [17]): 0
Plant response rating, Corn (corn (Zea mays); [18]): 0
Plant response rating, Corn (corn (Zea mays); [19]): 20
Corn plant response rating (corn (Zea mays); [20]): 35
Corn plant response rating (corn (Zea mays); [21]): 10
Plant response rating, Galium [13, 14]: 95
Plant response rating, Galium [13, 15]: 95
Plant response rating, Galium [13, 16]: 95
Plant response rating, Galium [13, 17]: 100
Plant response rating, Galium [13, 18]: 90
Plant response rating, Galium [13, 19]: 98
Galium plant response rating [13, 20]: 98

— US10597388B2, “Pyridazinone herbicides” (FMC CORPORATION, priority 2014, dated 2020)
